Measurements reported in patent US20230203098A1, “HUMAN TRANSFERRIN RECEPTOR BINDING PEPTIDE” (priority 2020, published 2023).
Where two headings read alike, the source gives them in different places. Blank lines part the entries; values can stand above or below the compound they belong to. Where a SMILES comes first, the peptide text is derived from it. Bridges are numbered along the chain shown (N, C = ends). [ ]: non-standard residue; d: D form. The star is where a group is joined. X2 = O=C(O)c1cc(C(=O)*)ccc1-c1c2ccc(=O)cc-2oc2cc(O)ccc12; PEG12 = NCCOCCOCCOCCOCCOCCOCCOCCOCCOCCOCCOCCOCCC(=O)O; NMePhe(3-Cl) = CN[C@@H](Cc1cccc(Cl)c1)C(=O)O; NMeW = CN[C@@H](Cc1c[nH]c2ccccc12)C(=O)O; Lys(N3) = [N-]=[N+]=NCCCC[C@H](N)C(=O)O; NMeY = CN[C@@H](Cc1ccc(O)cc1)C(=O)O

Target: transferrin receptor (hTfR) (Homo sapiens, UniProt P02786)
Experiment: Intermolecular interaction evaluation test between transferrin receptor (hTfR) and peptide by surface plasmon resonance (SPR)
Format: binding
How it was run: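 hTfR captured on Ni-NTA chip then amine-coupled; peptides run single-cycle kinetics at 5–100 nM in 10 mM HEPES pH 8.0, 150 mM NaCl, 0.05% Tween 20, 0.1% BSA, 1.0% DMSO. KD from least-squares curve fitting of sensorgrams.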

[1] = SPR, peptides, linker-added peptides and FITC conjugates, Patent ID 203-230, read-out: KD
[2] = surface plasmon resonance, peptide vs hTfR, read-out: KD value for hTfR by SPR (class symbol)
[3] = surface plasmon resonance, hTfR, read-out: KD value for hTfR by SPR (class symbol)
[4] = surface plasmon resonance, peptide vs hTfR, read-out: KD value, hTfR binding by SPR (class symbol)

transferrin receptor (hTfR), sequence (P02786 whole entry): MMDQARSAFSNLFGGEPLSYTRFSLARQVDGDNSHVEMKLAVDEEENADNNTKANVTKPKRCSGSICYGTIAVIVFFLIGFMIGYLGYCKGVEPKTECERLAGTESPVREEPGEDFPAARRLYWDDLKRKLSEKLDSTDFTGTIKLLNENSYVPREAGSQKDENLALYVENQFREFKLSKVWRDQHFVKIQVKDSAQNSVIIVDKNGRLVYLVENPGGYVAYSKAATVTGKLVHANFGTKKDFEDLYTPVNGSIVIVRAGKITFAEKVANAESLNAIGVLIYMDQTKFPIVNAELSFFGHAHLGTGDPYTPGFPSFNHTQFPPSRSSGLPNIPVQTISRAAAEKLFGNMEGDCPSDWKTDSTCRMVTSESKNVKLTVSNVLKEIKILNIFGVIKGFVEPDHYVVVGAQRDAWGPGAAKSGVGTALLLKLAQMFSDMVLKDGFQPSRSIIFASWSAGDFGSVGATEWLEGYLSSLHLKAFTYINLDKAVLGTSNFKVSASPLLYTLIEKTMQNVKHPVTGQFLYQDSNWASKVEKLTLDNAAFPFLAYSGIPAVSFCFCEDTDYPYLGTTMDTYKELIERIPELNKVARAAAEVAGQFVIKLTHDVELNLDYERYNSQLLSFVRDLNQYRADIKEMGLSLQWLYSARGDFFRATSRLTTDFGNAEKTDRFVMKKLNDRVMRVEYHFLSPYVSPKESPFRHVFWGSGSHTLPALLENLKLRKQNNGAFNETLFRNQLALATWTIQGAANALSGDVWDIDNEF

SMILES: CC[C@H](C)[C@@H]1NC(=O)[C@H](Cc2ccc(O)cc2)NC(=O)[C@H](Cc2ccc(O)cc2)NC(=O)[C@H](CC(N)=O)NC(=O)[C@H](Cc2c[nH]c3ccccc23)NC(=O)[C@H](C(C)C)NC(=O)[C@H](Cc2ccccc2)NC(=O)[C@H](C(C)C)NC(=O)[C@H](C)NC(=O)CSC[C@@H](C(=O)NCCOCCOCCOCCOCCOCCOCCOCCOCCOCCOCCOCCOCCC(=O)N[C@@H](CCCCNC(=O)c2ccc(-c3c4ccc(=O)cc-4oc4cc(O)ccc34)c(C(=O)O)c2)C(N)=O)NC(=O)[C@H](CCC(=O)O)NC(=O)[C@H](CCCNC(=N)N)NC(=O)[C@@H]2CCCN2C(=O)[C@H](C(C)C)NC1=O [compound 211] ({CH2CO}-AVFVWNYYIVPREC[PEG12]K(X2)-NH2; thioether N-14)
- Kd [1]: 1 to 100 nM

SMILES: CC[C@H](C)[C@@H]1NC(=O)[C@H](Cc2ccc(O)cc2)NC(=O)[C@H](Cc2ccc(O)cc2)NC(=O)[C@H](CC(N)=O)NC(=O)[C@H](Cc2c[nH]c3ccccc23)NC(=O)[C@H](C(C)C)NC(=O)[C@H](Cc2ccccc2)N(C)C(=O)[C@H](C(C)C)NC(=O)[C@H](C)NC(=O)CSC[C@@H](C(=O)NCCOCCOCCOCCOCCOCCOCCOCCOCCOCCOCCOCCOCCC(N)=O)NC(=O)[C@H](Cc2ccc(O)cc2)N(C)C(=O)[C@H](Cc2ccc(O)cc2)NC(=O)[C@H](CCCNC(=N)N)NC(=O)[C@H](CCCNC(=N)N)N(C)C(=O)[C@H]([C@@H](C)CC)NC1=O [compound 112]
- Kd (SPR, hTfR No. 894 variants with PEG12c linker (Table 2), read-out: KD): 1 to 100 nM

SMILES: CC[C@H](C)[C@@H]1NC(=O)[C@H](Cc2ccc(OC)cc2)NC(=O)[C@H](Cc2ccc(O)cc2)NC(=O)[C@H](CC(N)=O)NC(=O)[C@H](Cc2c[nH]c3ccccc23)N(C)C(=O)[C@H](C(C)C)NC(=O)[C@H](Cc2cccc(Cl)c2)N(C)C(=O)[C@H](C(C)C)NC(=O)[C@H](CCC(=O)O)NC(=O)CSC[C@@H](C(N)=O)NC(=O)[C@H](Cc2ccc(O)cc2)N(C)C(=O)[C@H](Cc2ccccc2)NC(=O)[C@H](CCCNC(=N)N)NC(=O)[C@H](CCCNC(=N)N)NC(=O)[C@H]([C@@H](C)CC)NC1=O [compound 217]
- Kd [1]: 1 to 100 nM

SMILES: CC[C@H](C)[C@@H]1NC(=O)[C@H](Cc2ccc(OC)cc2)NC(=O)[C@H](Cc2ccc(O)cc2)NC(=O)[C@H](CC(N)=O)NC(=O)[C@H](Cc2c[nH]c3ccccc23)N(C)C(=O)[C@H](C(C)C)NC(=O)[C@H](Cc2cccc(Cl)c2)N(C)C(=O)[C@H](C(C)C)NC(=O)[C@H](C)NC(=O)CSC[C@@H](C(=O)NCCOCCOCCOCCOCCC(N)=O)NC(=O)[C@H](Cc2ccc(O)cc2)N(C)C(=O)[C@H](Cc2ccccc2)NC(=O)[C@@H](CCCNC(=N)N)NC(=O)[C@H](CCCNC(=N)N)NC(=O)[C@H]([C@H](C)O)NC1=O [compound 332]
- Kd [4]: 1 to 100 nM

SMILES: CC[C@H](C)[C@@H]1NC(=O)[C@H](Cc2ccc(OC)cc2)NC(=O)[C@H](Cc2ccc(O)cc2)NC(=O)[C@H](CC(N)=O)NC(=O)[C@H](Cc2c[nH]c3ccccc23)N(C)C(=O)[C@H](C(C)C)NC(=O)[C@H](Cc2cccc(Cl)c2)N(C)C(=O)[C@H](C(C)C)NC(=O)[C@H](C)NC(=O)CSC[C@@H](C(=O)NCCOCCOCCOCCOCCC(N)=O)NC(=O)[C@H](Cc2ccc(O)cc2)N(C)C(=O)[C@H](Cc2ccccc2)NC(=O)[C@@H](CCCNC(=N)N)NC(=O)C(C)(C)NC(=O)[C@H]([C@@H](C)CC)NC1=O [compound 354]
- Kd [3]: < 1 nM

SMILES: CC[C@H](C)[C@@H]1NC(=O)[C@H](Cc2ccc(OC)cc2)NC(=O)[C@H](Cc2ccc(O)cc2)NC(=O)[C@H](CC(N)=O)NC(=O)[C@H](Cc2c[nH]c3ccccc23)N(C)C(=O)[C@H](C(C)C)NC(=O)[C@H](Cc2cccc(Cl)c2)N(C)C(=O)[C@H](CCC(=O)O)NC(=O)[C@H](C)NC(=O)CSC[C@@H](C(=O)NCC(=O)N[C@@H](CCCCN=[N+]=[N-])C(N)=O)NC(=O)[C@H](Cc2ccc(O)cc2)N(C)C(=O)[C@H](Cc2ccccc2)NC(=O)[C@@H](CCCNC(=N)N)NC(=O)[C@H](CCCNC(=N)N)NC(=O)[C@H](CCC(=O)O)NC1=O [compound 224] ({CH2CO}-AE[NMePhe(3-Cl)]V[NMeW]NYY(Me)IER[dR]F[NMeY]CG[Lys(N3)]-NH2; thioether N-15)
- Kd [1]: 1 to 100 nM

SMILES: CC[C@H](C)[C@@H]1NC(=O)[C@H](Cc2ccc(O)cc2)NC(=O)[C@H](Cc2ccc(O)cc2)NC(=O)[C@H](CC(N)=O)NC(=O)[C@H](Cc2c[nH]c3ccccc23)NC(=O)[C@H](C(C)C)NC(=O)[C@H](Cc2ccccc2)N(C)C(=O)[C@H](C(C)C)NC(=O)[C@H](C)NC(=O)CSC[C@@H](C(=O)NCC(=O)NCC(=O)N[C@@H](CCCCNC(=O)C2CCC(CN3C(=O)C=CC3=O)CC2)C(N)=O)NC(=O)[C@H](Cc2ccc(O)cc2)N(C)C(=O)[C@H](Cc2ccc(O)cc2)NC(=O)[C@H](CCCNC(=N)N)NC(=O)[C@H](CCCNC(=N)N)NC(=O)[C@H]([C@@H](C)CC)NC1=O (some centres unmarked) [compound 195]
- Kd (hTfR binding by SPR, hTfR No. 894 variant peptides, linker-added peptides and payload conjugates (Table 2), read-out: KD value obtained from the SPR measurement): 1 to 100 nM

SMILES: CC[C@H](C)[C@@H]1NC(=O)[C@H](Cc2ccc(OC)cc2)NC(=O)[C@H](Cc2ccc(O)cc2)NC(=O)[C@H](CC(N)=O)NC(=O)[C@H](Cc2cn(CC(=O)O)c3ccccc23)NC(=O)[C@H](C(C)C)NC(=O)[C@H](Cc2cccc(Cl)c2)N(C)C(=O)[C@H](C(C)C)NC(=O)[C@H](C)NC(=O)CSC[C@@H](C(N)=O)NC(=O)[C@H](Cc2ccc(O)cc2)N(C)C(=O)[C@H](Cc2ccccc2)NC(=O)[C@@H](CCCNC(=N)N)NC(=O)C(C)(C)NC(=O)[C@H]([C@@H](C)CC)NC1=O [compound 303]
- Kd [4]: 1 to 100 nM

More lines, now with the values ahead:

- Kd [2]: < 1 nM
SMILES: CC[C@H](C)[C@@H]1NC(=O)[C@H](Cc2ccc(O)cc2)NC(=O)[C@H](Cc2ccc(O)cc2)NC(=O)[C@H](CC(N)=O)NC(=O)[C@H](Cc2c[nH]c3ccccc23)NC(=O)[C@H](C(C)C)NC(=O)[C@H](Cc2ccccc2)N(C)C(=O)[C@H](C(C)C)NC(=O)[C@H](C)NC(=O)CSC[C@@H](C(=O)NCCOCCOCCOCCOCCC(=O)N[C@H](CCCCNC(=O)c2ccc(-c3c4ccc(=O)cc-4oc4cc(O)ccc34)c(C(=O)O)c2)C(N)=O)NC(=O)[C@H](Cc2ccc(O)cc2)N(C)C(=O)[C@H](Cc2ccc(O)cc2)NC(=O)[C@H](CCCNC(=N)N)NC(=O)[C@H](CCCNC(=N)N)NC(=O)[C@H]([C@@H](C)CC)NC1=O [compound 446]

- Kd [3]: 1 to 100 nM
SMILES: CC[C@H](C)[C@@H]1NC(=O)[C@H](Cc2ccc(OC)cc2)NC(=O)[C@H](Cc2ccc(O)cc2)NC(=O)[C@H](CC(N)=O)NC(=O)[C@H](Cc2c[nH]c3ccccc23)N(C)C(=O)[C@H](C(C)C)NC(=O)[C@H](Cc2cccc(Cl)c2)N(C)C(=O)[C@H](C(C)C)NC(=O)[C@H](C)NC(=O)CSC[C@@H](C(N)=O)NC(=O)[C@H](Cc2ccc(O)cc2)N(C)C(=O)[C@H](Cc2ccccc2)NC(=O)[C@H](CCC(=O)N[C@H](CCC(=O)O)C(=O)O)NC(=O)[C@H](CCCNC(=N)N)NC(=O)[C@H]([C@@H](C)CC)NC1=O [compound 385]

- Kd [2]: 1 to 100 nM
SMILES: CC[C@H](C)[C@@H]1NC(=O)[C@H](Cc2ccc(O)cc2)NC(=O)[C@H](Cc2ccc(O)cc2)NC(=O)[C@H](CC(N)=O)NC(=O)[C@H](Cc2c[nH]c3ccccc23)NC(=O)[C@H](C(C)C)NC(=O)[C@H](Cc2ccccc2)N(C)C(=O)[C@H](C(C)C)NC(=O)[C@H](C)NC(=O)CSC[C@@H](C(=O)NCCOCCOCCOCCOCCOCCOCCOCCOCCOCCOCCOCCOCCC(N)=O)NC(=O)[C@H](Cc2ccc(O)cc2)N(C)C(=O)[C@H](Cc2ccc(O)cc2)NC(=O)[C@H](CCCNC(=N)N)NC(=O)[C@H](CCCNC(=N)N)NC(=O)[C@H]([C@@H](C)CC)NC1=O [compound 420]

- Kd [3]: 1 to 100 nM
SMILES: CC[C@H](C)[C@@H]1NC(=O)[C@H](Cc2ccc(OC)cc2)NC(=O)[C@H](Cc2ccc(O)cc2)NC(=O)[C@H](CC(N)=O)NC(=O)[C@H](Cc2c[nH]c3ccccc23)N(C)C(=O)[C@H](C(C)C)NC(=O)[C@H](Cc2cccc(Cl)c2)N(C)C(=O)[C@H](C(C)C)NC(=O)[C@H](C)NC(=O)CSC[C@@H](C(N)=O)NC(=O)[C@H](Cc2ccc(O)cc2)N(C)C(=O)[C@H](CCC(=O)N[C@H](CCC(=O)O)C(=O)O)NC(=O)[C@@H](CCCNC(=N)N)NC(=O)[C@H](CCCNC(=N)N)NC(=O)[C@H]([C@@H](C)CC)NC1=O [compound 391]

- Kd [3]: 1 to 100 nM
SMILES: CC[C@H](C)[C@@H]1NC(=O)[C@H](Cc2ccc(OC)cc2)NC(=O)[C@H](Cc2ccc(O)cc2)NC(=O)[C@H](CC(N)=O)NC(=O)[C@H](Cc2c[nH]c3ccccc23)N(C)C(=O)[C@H](C(C)C)NC(=O)[C@H](Cc2cccc(Cl)c2)N(C)C(=O)[C@H](C(C)C)NC(=O)[C@H](C)NC(=O)CSC[C@@H](C(N)=O)NC(=O)[C@H](Cc2ccc(O)cc2)N(C)C(=O)[C@H](Cc2cccc(Cl)c2)NC(=O)[C@@H](CCCNC(=N)N)NC(=O)[C@H](CCCNC(=N)N)NC(=O)[C@H]([C@@H](C)CC)NC1=O [compound 393]

- Kd [2]: 1 to 100 nM
SMILES: CC[C@H](C)[C@@H]1NC(=O)[C@H](Cc2ccc(O)cc2)NC(=O)[C@H](Cc2ccc(O)cc2)NC(=O)[C@H](CC(N)=O)NC(=O)[C@H](Cc2c[nH]c3ccccc23)NC(=O)[C@H](C(C)C)NC(=O)[C@H](Cc2ccccc2)N(C)C(=O)[C@H](C(C)C)NC(=O)[C@H](C)NC(=O)CSC[C@@H](C(=O)NCC(=O)N[C@H](CCC(=O)O)C(=O)N[C@H](CCC(=O)O)C(=O)N[C@H](CCC(=O)O)C(=O)N[C@@H](CO)C(=O)N[C@@H](CO)C(=O)N[C@@H](CSCC(=O)NC)C(N)=O)NC(=O)[C@H](Cc2ccc(O)cc2)N(C)C(=O)[C@H](Cc2ccc(O)cc2)NC(=O)[C@H](CCCNC(=N)N)NC(=O)[C@H](CCCNC(=N)N)NC(=O)[C@H]([C@@H](C)CC)NC1=O [compound 424]
